Source: patent publication US20230017045A1, “PYRIDINE AND PYRIMIDINE CARBOXYLATE HERBICIDES AND METHODS OF USE THEREOF” (Dow AgroSciences LLC, priority 2017, published 2023)
Where two headings read alike, the source gives them in different places.

System: test plant species
Experiment: Post-emergent herbicidal activity test (greenhouse, foliar spray, visual growth reduction)
Assay type: in vivo
Conditions: post-emergence, 336 h, 140 g ai/ha
Outline: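 Visual percent injury (0-100) rated 14 d after treatment, relative to nontreated and solvent-blank plants. Test plants at first or second true leaf stage received an overhead track-sprayer application at 187 L/ha. Compounds were formulated in aqueous acetone/DMSO carrier containing crop oil concentrate and X-77 surfactant.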

[1] = ECHCG: barnyardgrass (Echinochloa crus-galli), 14 days after application, read-out: Visual Growth Reduction (%) 14 Days After Application, ECHCG
[2] = IPOHE: ivy-leaf morning glory (Ipomoea hederacea), 14 days after application, read-out: Visual Growth Reduction (%) 14 Days After Application, IPOHE
[3] = KCHSC: kochia (Bassia scoparia), 14 days after application, read-out: Visual Growth Reduction (%) 14 Days After Application, KCHSC
[4] = ORYSA: rice (Oryza sativa), 14 days after application, read-out: Visual Growth Reduction (%) 14 Days After Application, ORYSA
[5] = SETFA: giant foxtail (Setaria faberi), 14 days after application, read-out: Visual Growth Reduction (%) 14 Days After Application, SETFA
[6] = SORVU: grain sorghum (Sorghum vulgare), 14 days after application, read-out: Visual Growth Reduction (%) 14 Days After Application, SORVU
[7] = STEME: common chickweed (Stellaria media), 14 days after application, read-out: Visual Growth Reduction (%) 14 Days After Application, STEME
[8] = TRZAS: wheat, spring (Triticum aestivum), 14 days after application, read-out: Visual Growth Reduction (%) 14 Days After Application, TRZAS
[9] = blackgrass (Alopecurus myosuroides), 14 Days After Application, read-out: Visual Growth Reduction (%) ALOMY
[10] = crabgrass (Digitaria sanguinalis), 14 Days After Application, read-out: Visual Growth Reduction (%) DIGSA
[11] = lambsquarters (Chenopodium album), 14 Days After Application, read-out: Visual Growth Reduction (%) CHEAL
[12] = redroot pigweed (Amaranthus retroflexus), 14 Days After Application, read-out: Visual Growth Reduction (%) AMARE
[13] = wild oat (Avena fatua), 14 Days After Application, read-out: Visual Growth Reduction (%) AVEFA
[14] = yellow nutsedge (Cyperus esculentus), 14 Days After Application, read-out: Visual Growth Reduction (%) CYPES
[15] = canada thistle (Cirsium arvense), 14 Days After Application, read-out: Visual Growth Reduction (%) CIRAR

Compound	pest or weed control at 140 g/ha [1] [%]	pest or weed control at 140 g/ha [2] [%]	pest or weed control at 140 g/ha [3] [%]	pest or weed control at 140 g/ha [4] [%]	pest or weed control at 140 g/ha [5] [%]	pest or weed control at 140 g/ha [6] [%]	pest or weed control at 140 g/ha [7] [%]	pest or weed control at 140 g/ha [8] [%]	pest or weed control at 140 g/ha [9] [%]	pest or weed control at 140 g/ha [10] [%]	pest or weed control at 140 g/ha [11] [%]	pest or weed control at 140 g/ha [12] [%]	pest or weed control at 140 g/ha [13] [%]	pest or weed control at 140 g/ha [14] [%]	pest or weed control at 140 g/ha [15] [%]
COc1cc2c(cc1-c1nc(C(=O)O)c(Cl)cc1F)OC(F)(F)O2 [F344, 3-Chloro-6-(2,2-difluoro-6-methoxybenzo[d][1,3]dioxol-5-yl)-5-fluoropicolinic acid]	0 to 29	95 to 100	45 to 59	0 to 29	60 to 74	75 to 84	0 to 29	45 to 59	0 to 29	60 to 74	30 to 44	0 to 29	0 to 29	0 to 29	
COC(=O)c1nc(-c2ccc(O)cc2F)c(F)cc1Cl [F345, Methyl 3-chloro-5-fluoro-6-(2-fluoro-4-hydroxyphenyl) picolinate]	0 to 29	0 to 29	0 to 29	0 to 29	0 to 29	0 to 29	0 to 29	0 to 29	0 to 29	0 to 29	0 to 29	0 to 29	0 to 29	0 to 29	0 to 29
COC(=O)c1nc(-c2ccc(Cl)c3ccccc23)c(F)cc1Cl [F346, Methyl 3-chloro-6-(4-chloronaphthalen-1-yl)-5-fluoropicolinate]	0 to 29	30 to 44	0 to 29	0 to 29	0 to 29	0 to 29	0 to 29	0 to 29	0 to 29	0 to 29	0 to 29	0 to 29	0 to 29	0 to 29	
COc1nc(C(F)(F)F)ccc1-c1nc(C(=O)O)c(Cl)cc1F [F347, 5-Chloro-3-fluoro-2′-methoxy-6′-(trifluoromethyl)-[2,3′-bipyridine]-6-carboxylic acid]	85 to 94	95 to 100	85 to 94	30 to 44	85 to 94	85 to 94	0 to 29	75 to 84	60 to 74	95 to 100	95 to 100	95 to 100	60 to 74	0 to 29	85 to 94
COC(=O)c1nc(-c2ccc(N)cc2F)c(F)cc1Cl [F348, Methyl 6-(4-amino-2-fluorophenyl)-3-chloro-5-fluoropicolinate]	0 to 29	0 to 29	0 to 29	0 to 29	0 to 29	0 to 29	0 to 29	0 to 29	0 to 29	0 to 29	0 to 29	0 to 29	0 to 29	0 to 29	
O=C(O)c1nc(-c2cc(Br)c(C(F)(F)F)cc2Cl)ccc1Cl [F349, 6-(5-Bromo-2-chloro-4-(trifluoromethyl)phenyl)-3-chloropicolinic acid]	0 to 29	95 to 100	85 to 94	0 to 29	75 to 84	85 to 94	0 to 29	85 to 94	60 to 74	75 to 84	95 to 100	60 to 74	60 to 74	0 to 29	
C=Cc1cc(-c2nc(C(=O)O)c(Cl)cc2F)c(Cl)cc1C(F)(F)F [F350, 3-Chloro-6-(2-chloro-4-(trifluoromethyl)-5-vinylphenyl)-5-fluoropicolinic acid]	0 to 29	85 to 94	85 to 94	0 to 29	0 to 29	0 to 29	0 to 29	0 to 29	0 to 29	30 to 44	60 to 74	30 to 44	0 to 29	0 to 29	
COC(=O)c1nc(-c2ccc(C#N)cc2OC)c(F)cc1Cl [F351, Methyl 3-chloro-6-(4-cyano-2-methoxyphenyl)-5-fluoropicolinate]	30 to 44	95 to 100	30 to 44	0 to 29	75 to 84	75 to 84	0 to 29	0 to 29	0 to 29	30 to 44	75 to 84	60 to 74	0 to 29	0 to 29	0 to 29
O=C(O)c1nc(-c2ccc(C(F)(F)F)cc2Cl)c(F)cc1Cl [F352, 3-chloro-6-(2-chloro-4-(trifluoromethyl)phenyl)-5-fluoropicolinic acid]	95 to 100	95 to 100	85 to 94	85 to 94	95 to 100	95 to 100	60 to 74	95 to 100	75 to 84	95 to 100	95 to 100	95 to 100	85 to 94	0 to 29	95 to 100
COC(=O)c1nc(-c2cc3c(cc2OC)OC(F)(F)O3)ccc1Cl [F353, Methyl 3-chloro-6-(2,2-difluoro-6-methoxybenzo[d][1,3]dioxol-5-yl)picolinate]	0 to 29	95 to 100	0 to 29	0 to 29	0 to 29	45 to 59	0 to 29	0 to 29	0 to 29	0 to 29	45 to 59	0 to 29	0 to 29	0 to 29	0 to 29
COC(=O)c1nc(-c2ccc(O)cc2Cl)ccc1Cl [F355, methyl 3-chloro-6-(2-chloro-4-hydroxyphenyl)picolinate]	0 to 29	0 to 29	0 to 29	0 to 29	0 to 29	0 to 29	0 to 29	0 to 29	0 to 29	0 to 29	0 to 29	0 to 29	0 to 29	0 to 29	75 to 84
